Two compounds from paper PMC3764137, “Sulphamoylated 2-Methoxyestradiol Analogues Induce Apoptosis in Adenocarcinoma Cell Lines” (PLoS ONE, 2013) can be followed below.

Common to all, as to format: cell-based, human
Test [1] concerns MDA-MB-231 cells. The test is described as follows: Cytochrome c release (FlowCellect, flow cytometry). The following applies: MDA-MB-231, 0.5 μM analogues (2-methoxyestradiol-bis-sulphamate 0.55 μM), 24 h. The protocol: (§1) This kit utilizes a unique set of buffers that selectively permeabilizes the […] without affecting the mitochondrial membrane. […] Cells (500,000) were seeded with an overnight attachment policy. After 24 h of exposure to 0.5 μM of the sulphamoylated 2ME2 analogues, cells were detached using trypsin and centrifuged at 13,000×g. Cells (500,000) were resuspended in PBS, centrifuged and resuspended in permeabilization buffer (according to supplier's instructions) for 10 min on ice. Subsequently cells were centrifuged, resuspended in 100 µl fixation buffer (according to supplier's instructions) for 20 min at room temperature, centrifuged again and resuspended in blocking buffer (150 µl). After another centrifugation step, cells were centrifuged and resuspended in blocking buffer (twice). Anti-cytochrome c-FITC (10 µl) was added to each sample and samples were incubated for 30 min at room temperature. Cells were centrifuged and blocking buffer (100 µl) was added. After centrifugation, blocking buffer (200 µl) was added to the samples for analysis via flow cytometry (FC500 System flow cytometer, Beckman Coulter South Africa (Pty) Ltd). Cells presenting with cytochrome c release were detected in the fluorescein isothiocyanate (FITC) channel (FL1) showing diffused green fluorescence. Data from at least 10 000 cells were analyzed by means of Cyflogic version 1.2.1 software (Pertu Therho, Turko, Finland).
(In general: Flow cytometry measures light scatter and fluorescence of single cells or particles in a stream.)

Test [2] relates to HeLa cells. The test is described as follows: Cytochrome c release (FlowCellect, flow cytometry). The following applies: 0.5 μM analogues (2-methoxyestradiol-bis-sulphamate 0.55 μM), 24 h. Here is the method: as §1
Test [3] concerns MDA-MB-231 cells. The test is described as follows: Double immunofluorescence of intracellular microtubules. The following applies: MDA-MB-231, 24 h; 0.189 μM ESE-15-one, 0.5 μM EMBS and ESE-16, 1μM colchicine. The protocol: (§2) In order to visualize the effect of the 2ME2 analogues on microtubule dynamics and integrity, a double immunofluorescence technique using antibodies against tyrosinated and detyrsosinated tubulin was conducted as described by Paturle-Lafanechère et al. (2004). HeLa and MDA-MB-231 cells were seeded onto sterilized coverslips and allowed to grow to 80% confluency for 48 h. Cells were exposed to 0.189 μM ESE-15-one, 0.5 μM EMBS and ESE-16 along with DMSO (negative control) and 1μM colchicine as a positive control for 24 h. Cells were permeablised permeabilized with warmed OPT buffer (80 mmol/L Pipes, […], […], 0.5% Triton X-100 and glycerol 10%, pH 6.8), followed by fixation in ice-cold methanol at −20°C and were subsequently incubated with the primary antibody cocktail (PBS containing anti-detyrosinated tubulin (L4), anti-[…], BSA 0.3%, tween 0.1%). After incubation, cells were incubated with the secondary antibodies, namely Alexa 488 (Invitrogen) and Cy3 (Jackson ImmunoResearch laboratories). Samples were visualized using a Zeiss AxioImager Z1 microscope controlled by Axiovision softwared (Carl Zeiss) (X63 oil objective). Images were captured using an Ocra R2 N/B camera (Hamamatsu) and assessed for microtubule integrity and ratio of tyrosinated to detyrosinated tubulin.

Test [4] concerns HeLa cells. The test is described as above. The settings on record: 24 h, 0.189 μM ESE-15-one, 0.5 μM EMBS and ESE-16, 1μM colchicine. The protocol:
as §2

Another test relates to caspase 3. The test is described as follows: Caspase 3 colorimetric assay in HeLa cells. The following applies: 0.5 μM, 24 h. Here is the method:
Possible activation of caspase 3, -6 and -8 was investigated by means of caspase 3, caspase 6 and FLICE/caspase 8 colorimetric kits, respectively. Cells (1,000,000) were seeded with an overnight attachment policy. After 24 h of exposure to 0.5 μM of the sulphamoylated 2ME2 analogues, cells were detached with trypsin and centrifuged at 13,000× g. Cells (500,000) were resuspended in 50 µl of chilled cell lysis buffer and incubated on ice for 10 min. Cells were centrifuged at 10,000×g for a min. Supernatant was transferred to a fresh tube and put on ice. After determination of the protein concentration using the bicinchoninic acid (BCA) protein assay (Thermo Fisher Scientific, Johannesburg, South Africa), 100 µg protein/50 µl cell lysis buffer was mixed with 50 µl 2X reaction buffer (containing 10 mM Dithiothreitol (DTT)). Ac-Asp-Glu-Val-Asp-p-nitroanilide (Ac-DEVD-pNA) (5 µl of 4 mM) (caspase-3-specific substrate), or 5 µl 4 mM […] (Ac-VEID-pNA) (caspase-6-specific substrate), or 5 µl 4 mM Ac-Ile-Glu-Thr-Asp-p-nitroanilide (Ac-IETD-pNA) (caspase-8-specific substrate) was added and the mixture was incubated at 37°C for 120 min (200 µM final concentration). Absorbance was determined at 405 nm on the ELx800 Universal Microplate Reader available from Bio-Tek Instruments Inc. (Vermont, United States of America).

Test [5] relates to HeLa cells. Put plainly: Cell morphology by transmission electron microscopy. The settings on record: 24 h; for cell shrinkage (TEM): compared to vehicle-treated cells. The protocol: The in vitro influence of ESE-15-one, EMBS and ESE-16 on cell morphology was determined after exposure for 24 h using transmission electron microscopy (TEM). […] After each fixation step the samples were rinsed 3 times in 0.0075 M sodium phosphate buffer (pH 7.4). Samples were dehydrated using increasing concentrations of ethanol (30%, 50%, 70%, 90%, and 3×100%) and embedded in Quetol resin, sectioned with a microtome and placed on copper discs. Sections were contrasted with 4% aqueous uranyl acetate and Reynolds' lead citrate and viewed with a JOEL JEM 2100F transmission electron microscope (Electron Microscopy Unit, University of Pretoria, South Africa).

Entries after “also recorded” stand apart in the source; their conditions may differ.

Consider `CCc1cc2c(cc1OS(N)(=O)=O)CC[C@@H]1C2CC[C@]2(C)[C@@H](OS(N)(=O)=O)CC[C@@H]12` (stereo partly drawn) [EMBS, (8R, 13S, 14S, 17S)-2-ethyl-13-methyl-7,8,9, 11, 12,13, 14, 15, 16, 17-decahydro-6H-cyclopenta [a] phenanthrane-3, 17-diyl bis (sulphamate)], for which the “Cytochrome c in cytoplasm (cells with cytochrome c release)” value (from here on “Cytochrome c in cytoplasm”) in the test on MDA-MB-231 cells [1] and with HeLa cells [2] was 21–23% in each case. For the same compound, the “microtubule integrity” value in the test on MDA-MB-231 cells [3] was “detyrosinated microtubule fragments”; in the test on HeLa cells [4], “microtubule abrogation; also recorded: fragmented microtubules”. In the test with caspase 3, the “caspase 3 activity compared to vehicle-treated cells” value is listed as “more than doubled”. Moreover, the “cell debris (TEM)” value in the test with HeLa cells [5] is “Cell debris was observed”. For the same compound, the “vacuoles (TEM)” value with HeLa cells [5] is reported as “vacuoles”. In addition, the “cell shrinkage (TEM)” value with HeLa cells [5] is reported as “shrunken”.

For the compound `CCc1cc2c(cc1OS(N)(=O)=O)CC[C@@H]1[C@@H]2CC[C@]2(C)C(=O)C=C[C@@H]12` [ESE-15-one, 2-Ethyl-3-O-sulphamoyl-estra-1,3,5 (10) 15-tetraene-3-ol-17one], the “Cytochrome c in cytoplasm” value in the test with MDA-MB-231 cells [1] came to 34%. Also, the “Cytochrome c in cytoplasm” value in the test with HeLa cells [2] stood at 35%. Further, in the test with MDA-MB-231 cells [3], the “microtubule integrity” value is “detyrosinated microtubule fragments”. In addition, the “microtubule integrity” value in the test on HeLa cells [4] is “microtubule abrogation; also recorded: altered microtubule morphology”. In the test on caspase 3, the “caspase 3 activity compared to vehicle-treated cells” value is “more than doubled”. Moreover, in the test on HeLa cells [5], the “apoptotic bodies (TEM)” value was “Apoptotic bodies were observed”, the “vacuoles (TEM)” value is reported as “vacuoles” and the “cell shrinkage (TEM)” value is recorded as “shrunken”.
